Five compounds from patent EP4813986A1, “COMPOUND FOR REDUCING SERUM CONCENTRATION OF RBP4, AND USE” (Heronova Pharmaceuticals, LLC, priority 2023, dated 2025) can be followed below.

One data set has as its target T1, RBP4 (Mus musculus, UniProt Q00724).
T1 construct: from tissue; host or cells: plasma of ICR male mice
The experiment in a line: Plasma RBP4 content detection test (ELISA) after single oral dose. Conditions: 5 mg/kg oral, maximum reduction within 5 to 24 hours vs 0-hour value. Format: in vivo, ICR male mice. Here is the method: Test Method: ICR male mice aged 7 to 8 weeks were adaptively fed for 3 to 7 days and randomly divided into groups (4 mice per group), and fasted for 12 hours before the test. Orbital venous blood samples were collected and plasma was separated before administration on the test day (0-hour value as the initial content). Then, test compounds at a dose of 1 mg/kg or 5 mg/kg were orally administered (vehicle: 5% DMSO + 10% cyclodextrin), and vehicle (5% DMSO + 10% cyclodextrin) was orally administered as a control group. Orbital venous blood samples were collected and plasma was separated at 5, 8, 10, 12, and 24 hours after compound administration. The RBP4 content in plasma samples was detected using Mouse RBP4 (Retinol Binding Protein 4, Plasma) ELISA Kit (immunoway, KE1574), the reduction rate was calculated, and the maximum reduction rate within 5 to 24 hours was selected. Reduction rate of RBP4 content in mouse plasma at different sampling time points = (Initial RBP4 content - RBP4 content at sampling point) / Initial RBP4 content. Table 2 Plasma RBP4 Reduction Levels of Different Compounds

Data set [1] is described as follows: Pharmacokinetic test, single oral dose, plasma LC-MS/MS. Format: in vivo. Conditions: mouse, male ICR mice; for half-life: read-out: half-life T1/2 (converted); for Cmax: read-out: peak concentration Cmax; for Tmax: read-out: peak time Tmax. The protocol:
Test Method: Three ICR mice (male) were used for each compound, with five groups in total. Mice were treated with a single oral dose of 10 mg/kg or 5 mg/kg. For each mouse, blood samples were collected at 0.25, 0.5, 1, 2, 4, and 8 hours after administration. Whole blood samples were placed in test tubes containing EDTA-K2, inverted up and down several times, and then centrifuged at 6000 rpm, 4°C for 15 minutes to obtain plasma. The concentration of the compound in plasma samples was determined using the LC-MS/MS method. Table 4 Pharmacokinetic Results of Different Compounds

A further data set in a line: in vitro. To be noted: microsomes, pH 7.4. The protocol: Phosphate buffer preparation: Weigh 7.098 g of disodium hydrogen phosphate, add 500 mL of pure water and dissolve by ultrasonication to obtain a disodium hydrogen phosphate solution. Weigh 3.400 g of potassium dihydrogen phosphate, add 250 mL of pure water and dissolve by ultrasonication to obtain a potassium dihydrogen phosphate solution. The disodium hydrogen phosphate solution and potassium dihydrogen phosphate solution were mixed and adjusted to pH 7.4+0.2.
10 mM NADPH preparation: Weigh an appropriate amount of NADPH (reduced coenzyme II), freshly prepare a 10 mM working solution with phosphate buffer, and the final concentration is 1 mM.
Incubation system preparation: Prepare the suspension into the incubation plate according to Table 5, and pre-incubate in a 37°C water bath for 10 min. Table 5 Incubation System Preparation
2 µL of positive control or test compound working solution was added to 358 µL of the incubation system, mixed uniformly by vortexing, and all samples were prepared in duplicate. 40 µL of 10 mM NADPH was added to the system, mixed uniformly by low-speed vortexing, and the reaction timing was started. […] Centrifuge at 4700 rpm, 4°C for 15 minutes to precipitate proteins. Transfer 100 µL of the supernatant to the sample plate, add 100 µL of pure water and mix well for UPLC-MS/MS analysis. Table 6 Liver Microsome Stability Results

Molecules are shown by their SMILES. Like-named read-outs stand apart in the source and are kept apart here.

Turning to `COCC(=O)N1CCc2c(C(=O)N3CC=C(c4ccc(F)c(F)c4C(F)(F)F)CC3)n[nH]c2C1` [Compound 7], at RBP4, the “Maximum Plasma RBP4 Reduction Rate (5 mg/kg dose)” value (from here on “Maximum Plasma RBP4 Reduction Rate”) was determined as 64%. Moreover, in data set [1] (single oral dose 10 mg/kg), the AUC(0-t) came to 1530 ng·h/mL, the half-life was 1.49 h, the Cmax came out at 1050 ng/mL and the Tmax stood at 0.5 h. In the data set “in vitro” (human), this compound showed a half-life at 1 µM of 1.72 h and a microsomal CLint at 1 µM of 13.4 µL/min/mg. In the data set “in vitro” (mouse), this compound came in with a half-life at 1 µM of 0.26 h and a microsomal CLint at 1 µM of 89 µL/min/mg.

Take `O=C(c1n[nH]c2c1CCNC2)N1CC=C(c2cccc(F)c2C(F)(F)F)CC1` [Compound 13]: the “Maximum Plasma RBP4 Reduction Rate” value on RBP4 worked out at 67%. Moreover, in data set [1] (single oral dose 10 mg/kg), the AUC(0-t) was found to be 6040 ng·h/mL, the Cmax stood at 1200 ng/mL and the Tmax turned out to be 2 h. In the data set “in vitro” (human), this compound returned a half-life at 1 µM of over 3 h and a microsomal CLint at 1 µM of under 7.44 µL/min/mg. In the data set “in vitro” (mouse), this compound gave a half-life at 1 µM of 0.503 h and a microsomal CLint at 1 µM of 45.8 µL/min/mg.

Regarding `O=C(c1n[nH]c2c1CCNC2)N1CC=C(c2ccc(F)c(F)c2C(F)(F)F)CC1` [Compound 14], the “Maximum Plasma RBP4 Reduction Rate” value at RBP4 amounted to 53%. In data set [1] (single oral dose 5 mg/kg), the AUC(0-t) turned out to be 6000 ng·h/mL, the half-life is 7.54 h, the Cmax worked out at 364 ng/mL and the Tmax came to 5.3 h. For the same compound, in the data set “in vitro” (human), the half-life at 1 µM is over 3 h and the microsomal CLint at 1 µM was under 7.44 µL/min/mg. In “in vitro” (mouse), this compound registered a half-life at 1 µM of 0.5 h and a microsomal CLint at 1 µM of 46.2 µL/min/mg.

In the case of `NC(=O)CN1CCc2c(C(=O)N3CC=C(c4cccc(F)c4C(F)(F)F)CC3)n[nH]c2C1` [Compound 15], on RBP4, the “Maximum Plasma RBP4 Reduction Rate” value is on record as 77%. In data set [1] (single oral dose 5 mg/kg), the AUC(0-t) was 319 ng·h/mL, the half-life is 3.08 h, the Cmax was determined as 141 ng/mL and the Tmax came to 0.5 h. In the data set “in vitro” (human), this compound yielded a half-life at 1 µM of over 3 h and a microsomal CLint at 1 µM of under 7.44 µL/min/mg. Moreover, in “in vitro” (mouse), the half-life at 1 µM came to 0.29 h and the microsomal CLint at 1 µM is 79.9 µL/min/mg.

For `NC(=O)C(=O)N1CCc2c(C(=O)N3CC=C(c4cccc(F)c4C(F)(F)F)CC3)n[nH]c2C1` [Compound 21], on RBP4, the “Maximum Plasma RBP4 Reduction Rate” value is on record as 14%. In data set [1] (single oral dose 10 mg/kg), the AUC(0-t) is 1200 ng·h/mL, the half-life is 2.54 h, the Cmax worked out at 519 ng/mL and the Tmax was found to be 0.5 h. In the data set “in vitro” (human), the half-life at 1 µM was over 3 h and the microsomal CLint at 1 µM was under 7.44 µL/min/mg. In “in vitro” (mouse), this compound registered a half-life at 1 µM of 2.27 h and a microsomal CLint at 1 µM of 10.2 µL/min/mg.
